Reference: PubChem BioAssay (NCI)
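Exposure lasted 48 hours, with cells grown in 96-well plates and compounds tested at five concentrations. GI50 is the concentration that inhibits growth by half. TGI is the concentration that stops growth completely.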 *1 amine or outer side, *2 acyl side, *3 side chain or, on linkers, in order; H or OH if unused. Where a SMILES comes first, the peptide text is derived from it. [ ]: non-standard residue; d: D form. ξ: configuration not given here. X21 = CC[C@@H](C)C(N[*:1])C(=O)[*:2]; ξR = N=C(N)NCCCC(N)C(=O)O; ξI = CCC(C)C(N)C(=O)O; ξL = CC(C)CC(N)C(=O)O; ξK = NCCCCC(N)C(=O)O; ξV = CC(C)C(N)C(=O)O; ξA = CC(N)C(=O)O

What was measured:
Assay in all cases: inhibition of tumour cell growth, NCI panel, 48 h
COLO 205 colon = system: COLO 205 colon
HOP-92 NSCLC = system: HOP-92 NSCLC
HT29 colon = system: HT29 colon
MALME-3M melanoma = system: MALME-3M melanoma
NCI-H460 lung = system: NCI-H460 lung
OVCAR-3 ovarian = system: OVCAR-3 ovarian
RPMI-8226 leukemia = system: RPMI-8226 leukemia
SF-268 CNS = system: SF-268 CNS
SF-539 CNS = system: SF-539 CNS
TK-10 renal = system: TK-10 renal

Structure (SMILES) | GI50 (COLO 205 colon) | TGI (COLO 205 colon) | GI50 (HOP-92 NSCLC) | TGI (HOP-92 NSCLC) | GI50 (HT29 colon) | TGI (HT29 colon) | GI50 (MALME-3M melanoma) | TGI (MALME-3M melanoma) | GI50 (NCI-H460 lung) | TGI (NCI-H460 lung) | GI50 (OVCAR-3 ovarian) | TGI (OVCAR-3 ovarian) | GI50 (RPMI-8226 leukemia) | TGI (RPMI-8226 leukemia) | GI50 (SF-268 CNS) | TGI (SF-268 CNS) | GI50 (SF-539 CNS) | TGI (SF-539 CNS) | GI50 (TK-10 renal) | TGI (TK-10 renal)
Cn1c(=O)c(Oc2ccccc2)cc2cnc(NC3CCOCC3)nc21 | > 25 µM | > 25 µM | > 25 µM | > 25 µM | > 25 µM | > 25 µM | > 25 µM | > 25 µM | > 25 µM | > 25 µM | > 25 µM | > 25 µM | > 25 µM | > 25 µM | > 25 µM | > 25 µM | > 25 µM | > 25 µM | > 25 µM | > 25 µM
N#C/C(=C\c1ccc(Br)cc1)n1nnc2ccccc21 | 0.591 µM | 3.22 µM | 0.23 µM | 1.58 µM | 0.411 µM | 2.25 µM | 0.727 µM | 2.78 µM | 1.68 µM | 3.82 µM | 0.244 µM | 0.604 µM | 0.475 µM | 3.31 µM | 2.62 µM | 9.24 µM | 0.513 µM | 1.86 µM | 2.69 µM | 6.8 µM
COc1cc(/C=C2\C(=O)Nc3cccc(Cl)c32)cc(OC)c1OC | > 100 µM | > 100 µM | 23.9 µM | 93.2 µM | > 100 µM | > 100 µM | > 100 µM | > 100 µM | > 100 µM | > 100 µM | > 100 µM | > 100 µM | 53.7 µM | > 100 µM | > 100 µM | > 100 µM | > 100 µM | > 100 µM | > 100 µM | > 100 µM
C=C1C(=O)OC2CC(C)C3C=CC(=O)C3CC12 (stereo not drawn) | – | 3.34 µM | – | 4.04 µM | – | 4.83 µM | – | 4.08 µM | – | 9.5 µM | – | 13.6 µM | – | 7.03 µM | – | 7.4 µM | – | 4.92 µM | – | 8.07 µM
COc1ccc2c(c1)C1(C(=O)N2)C(C#N)=C(c2ccccc2)Nc2c1c(-c1ccccc1)nn2-c1ccccc1 (stereo not drawn) | 2.42 µM | 5.83 µM | 2.34 µM | 6.34 µM | 2.34 µM | 5.82 µM | 1.73 µM | 3.84 µM | 1.98 µM | 3.75 µM | 1.95 µM | 3.39 µM | 4.07 µM | 17.8 µM | 4.9 µM | 17.9 µM | 1.75 µM | 3.65 µM | 2.41 µM | 7.49 µM
COc1ccc(N(/C=C/C(=O)C(F)(F)F)CC(=O)c2ccc(Cl)c(Cl)c2)cc1 | 20.2 µM | 39.6 µM | 13.2 µM | 41.8 µM | 29.8 µM | > 100 µM | 39.7 µM | > 100 µM | 6.73 µM | 27.3 µM | 15.6 µM | 29.3 µM | 5.56 µM | 56.6 µM | 11.3 µM | 30.3 µM | 16.1 µM | 30.3 µM | 13.7 µM | 27.1 µM
Cn1cnc([N+](=O)[O-])c1Sc1nnnn1-c1ccccc1 | – | 20.7 µM | – | 13 µM | – | 31.9 µM | – | 21.3 µM | – | 33.5 µM | – | 26.6 µM | – | 52.6 µM | – | 39.4 µM | – | 24.9 µM | – | 32.4 µM
N#C/C(=C\c1ccc(C(O)P(=O)(O)O)cc1)C(N)=O (stereo not drawn) | – | > 100 µM | – | > 100 µM | – | > 100 µM | – | > 100 µM | – | > 100 µM | – | > 100 µM | – | > 100 µM | – | > 100 µM | – | > 100 µM | – | > 100 µM
Nc1nc(-c2cccc([N+](=O)[O-])c2)cc(-c2cc(-c3cccc([N+](=O)[O-])c3)nc(N)n2)n1 | – | > 100 µM | – | > 100 µM | – | > 100 µM | – | > 100 µM | – | > 100 µM | – | > 100 µM | – | > 100 µM | – | > 100 µM | – | > 100 µM | – | > 100 µM
CN(C)CCCn1c2nc(=O)[nH]c(=O)c-2nc2cc(Cl)c(Cl)cc21 | 1.35 µM | 2.83 µM | 12.2 µM | 25.8 µM | 2.13 µM | 11.9 µM | 9.28 µM | 26.8 µM | 14.5 µM | > 100 µM | 0.812 µM | 6.13 µM | 3.25 µM | 12.9 µM | 5.31 µM | 17.6 µM | 3.24 µM | 12.2 µM | 4.62 µM | 14.1 µM
O=C1NN(c2ccccc2)C(=O)/C1=C/c1ccc(Br)o1 | 3.75 µM | 11.2 µM | – | 3.33 µM | 4.21 µM | 22.1 µM | – | 0.972 µM | 15.1 µM | 36 µM | 1.07 µM | 13.2 µM | 0.777 µM | 10.9 µM | 14 µM | 47.7 µM | 20.5 µM | 41.9 µM | 13.2 µM | 33.7 µM
C[C@H](N)C(=O)N1C[C@H](CCCB(O)O)[C@](N)(C(=O)O)C1 | > 100 µM | > 100 µM | > 100 µM | > 100 µM | > 100 µM | > 100 µM | > 100 µM | > 100 µM | > 100 µM | > 100 µM | > 100 µM | > 100 µM | > 100 µM | > 100 µM | > 100 µM | > 100 µM | > 100 µM | > 100 µM | > 100 µM | > 100 µM
C1COCCOCCOCCOCCO1.CC(=O)[CH-]C(C)=O.CC(=O)[CH-]C(C)=O.CC(=O)[CH-]C(C)=O.[V] | 18.7 µM | 35.1 µM | 11.2 µM | 44.7 µM | 19.1 µM | 37.4 µM | 2.99 µM | 16.4 µM | 22.7 µM | 99.4 µM | 13.7 µM | 32.3 µM | 20.5 µM | 50 µM | 20.6 µM | 65.8 µM | 3.75 µM | 13.8 µM | 14.1 µM | 52 µM
COc1cc(/C=C(\OC(C)=O)c2ccc3c(c2)OCO3)cc(OC)c1OC | – | 51.5 µM | – | 45.4 µM | – | 61.9 µM | – | 59.7 µM | – | > 100 µM | – | 49.2 µM | – | 76.6 µM | – | 67.5 µM | – | 38.8 µM | – | > 100 µM
CNCCCNCCCN1C(=O)c2ccc3c4c(ccc(c24)C1=O)C(=O)N(CCCNCc1ccccc1OC)C3=O | 0.498 µM | 1.85 µM | 2.13 µM | 8.05 µM | 0.381 µM | 1.95 µM | 0.633 µM | 1.96 µM | 0.429 µM | 2.86 µM | 1.37 µM | 9.23 µM | 1.64 µM | 9.44 µM | 1.03 µM | 9.02 µM | 0.782 µM | 2.29 µM | 2.58 µM | 14.1 µM
O=C(O)C1CCCCC1c1c2ccc(=O)cc-2oc2cc(O)ccc12 (stereo not drawn) | – | > 100 µM | – | 41.1 µM | – | > 100 µM | – | > 100 µM | – | > 100 µM | – | 69.2 µM | – | > 100 µM | – | > 100 µM | – | 48.7 µM | – | > 100 µM
CCOC(=O)/C(=C\c1ccc[nH]1)C(=O)c1ccccc1 | – | > 100 µM | – | > 100 µM | – | > 100 µM | – | > 100 µM | – | > 100 µM | – | > 100 µM | – | > 100 µM | – | > 100 µM | – | > 100 µM | – | > 100 µM
NC(=O)c1ccc2nc3c(n2c1)C(=O)C(=O)c1ccccc1-3 | 1.91 µM | 3.82 µM | 1.77 µM | 3.33 µM | 2.4 µM | 6.01 µM | 0.171 µM | 0.311 µM | 1.53 µM | 3.34 µM | 0.24 µM | 0.63 µM | 2.2 µM | 5.52 µM | 0.436 µM | 1.66 µM | 0.621 µM | 1.85 µM | 1.82 µM | 3.23 µM
CCC(C)C1NC(=O)C(CC(C)C)NC(=O)C(C)NC(=O)C(C(C)C)NC(=O)C(CCCCN)NC(=O)C(CC(C)C)NC(=O)C(C(C)C)NC(=O)[C@H](C)NC(=O)C(C(C)CC)NC(=O)C(CCCN=C(N)N)NC(=O)C(CCCCN)NC(=O)C(CCCN=C(N)N)NC(=O)C(CCCCN)NC(=O)C([C@H](C)CC)NC(=O)C(CCCCN)NC1=O (stereo partly drawn) (cyclo(A[ξV][ξL][ξK][ξV][ξA][ξL][ξI][ξK][X21][ξK][ξR][ξK][ξR][ξI])) | 1.49 µM | 3.85 µM | 1.14 µM | 2.91 µM | 2.59 µM | 10.3 µM | 1.12 µM | 2.58 µM | 1.57 µM | 3.49 µM | 1.2 µM | 2.87 µM | 0.305 µM | 1.13 µM | 1.76 µM | 5.12 µM | 1.84 µM | 3.61 µM | 1.62 µM | 3.82 µM
Cc1cc(=O)oc2cc(OS(C)(=O)=O)ccc12 | – | > 100 µM | – | > 100 µM | – | > 100 µM | – | > 100 µM | – | > 100 µM | – | > 100 µM | – | > 100 µM | – | > 100 µM | – | > 100 µM | – | > 100 µM
CCCN(CCSSCCNc1nc(N(C)O)nc(N(C)O)n1)c1nc(N(C)O)nc(N(C)O)n1 | 2.9 µM | > 100 µM | 6.1 µM | > 100 µM | 7.81 µM | > 100 µM | 6.29 µM | > 100 µM | 3.87 µM | > 100 µM | 6.42 µM | > 100 µM | 4.48 µM | > 100 µM | 6.37 µM | > 100 µM | 4.05 µM | > 100 µM | 3.25 µM | > 100 µM
O=C(COc1cccc(/C=C2\CSc3ccccc3C2=O)c1)c1ccc(Cl)cc1 | 2.89 µM | 7.35 µM | 3.27 µM | 44.2 µM | 1.43 µM | 2.9 µM | 2.01 µM | 4.76 µM | 2.88 µM | 8.38 µM | 1.8 µM | 3.51 µM | > 100 µM | > 100 µM | 2.16 µM | 5.2 µM | 3.05 µM | 8.22 µM | 1.88 µM | 4.42 µM
